According to patent US9266891B2, “Substituted [1,2,4]triazolo[4,3-A]pyrazines that are BRD4 inhibitors” (Boehringer Ingelheim International GmbH, priority 2012, dated 2016):

Biological target: BRD4-BD1 (Homo sapiens (Human), UniProt O60885)
Experiment: BRD4-H4 tetraacetylated peptide inhibition AlphaScreen
Type: binding
Conditions: GST-BRD4-BD1 (aa 44-168) with biotinylated Acetyl-Histone H4 (Lys5, 8, 12, 16) peptide
Procedure: Biological Methods BRD4-H4 Tetraacetylated Peptide Inhibition AlphaScreen
Compounds are diluted in serial dilution 1:5 in assay buffer from 10 mM stock in DMSO (100 μM start concentration) in white OptiPlate-384 (PerkinElmer). A mix consisting of 15 nM GST-BRD4-BD1 protein (aa 44-168) or 150 nM GST-BRD4-BD2 (aa 333-460) and 15 nM biotinylated Acetyl-Histone H4 (Lys5, 8, 12, 16) peptide is prepared in assay buffer (50 mM HEPES pH=7.4; 25 mM NaCl; 0.05% Tween 20; 0.1% bovine serum albumin (BSA); 10 mM dithiothreitol (DTT)). 6 μl of the mix is added to the compound dilutions. Subsequently, 6 μl of premixed AlphaLISA Glutathione Acceptor Beads and AlphaScreen Streptavidin Donor Beads from PerkinElmer (in assay buffer at a concentration of 10 μg/ml each) are added and the samples are incubated for 30 min at RT in the dark (shaking 300 rpm). Afterwards, the signal is measured in a PerkinElmer Envision HTS Multilabel Reader using the AlphaScreen protocol from PerkinElmer. Each plate contains negative controls where biotinylated Acetyl-Histone H4 peptide and GST-BRD4-BD1 or GST-BRD4-BD2 are left out and replaced by assay buffer. Negative control values are entered as low basis value when using the software GraphPad Prism for calculations. Furthermore, a positive control (probe molecule JQ1+ with protein/peptide mix) is pipetted. Determination of IC50 values are carried out using GraphPad Prism 3.03 software (or updates thereof).

| IC50 [nM] | SMILES |
| --- | --- |
| 61 | CNc1nc(-c2cn(C)nc2Cc2ccccc2)cn2c(C)nnc12 [Example I-1, 6-(3-benzyl-1-methyl-1H-pyrazol-4-yl)-N,3-dimethyl-[1,2,4]triazolo[4,3-a]pyrazin-8-amine] |
| 41 | CNc1nc(-c2cnn(C)c2Oc2ccccc2)cn2c(C)nnc12 [Example I-2] |
| 41 | Cc1nc(-c2cnn(C)c2Oc2ccccc2)cn2c(C)nnc12 [Example I-3] |
| 18 | CNc1nc(-c2nn(C)c(C)c2Cc2ccccc2)cn2c(C)nnc12 [Example I-4] |
| 4 | CNc1nc(-c2nc(-c3ccccc3)c(C)n2Cc2ccccc2)cn2c(C)nnc12 [II-1, 6-(1-benzyl-5-methyl-4-phenyl-1H-imidazol-2-yl)-N,3-dimethyl-[1,2,4]triazolo[4,3-a]pyrazin-8-amine] |
| 15 | CNc1nc(-c2nc(C)c(C)n2Cc2ccccc2)cn2c(C)nnc12 [II-2] |
| 31 | Cc1nc(-c2cn3c(C)nnc3c(C)n2)n(Cc2ccccc2)c1C [II-3] |
| 7 | Cc1nnc2c(NC3CCN(C)CC3)nc(-c3nc4ccccc4n3Cc3ccccc3)cn12 [III-1, N-[6-(1-benzyl-1H-1,3-benzodiazol-2-yl)-3-methyl-[1,2,4]triazolo[4,3-a]pyrazin-8-yl]-1-methylpiperidin-4-amine] |
| 41 | COCCN1CCC(Nc2nc(-c3nc4ccccc4n3[C@@H](C)c3ccccc3)cn3c(C)nnc23)CC1 [III-2] |
| 49 | COCCN1CCC(Nc2nc(-c3nc4ccccc4n3[C@H](C)c3ccccc3)cn3c(C)nnc23)CC1 [III-3] |
| 8 | COCCN1CCC(Nc2nc(-c3nc4ccccc4n3Cc3ccccc3)cn3c(C)nnc23)CC1 [III-4] |
| 9 | COCCN1CCC(Nc2nc(-c3nc4ccccc4n3Cc3ccc(F)cc3)cn3c(C)nnc23)CC1 [III-5] |
| 9 | COCCN1CCC(Nc2nc(-c3nc4ccccc4n3Cc3ccc(F)c(F)c3)cn3c(C)nnc23)CC1 [III-6] |
| 22 | CNc1nc(-c2nc3ccccc3n2Cc2ccccc2)cn2c(C)nnc12 [III-7] |
| 9 | CNc1nc(-c2nc3cnc(N4CCN(C)CC4)cc3n2Cc2ccccc2)cn2c(C)nnc12 [III-8] |
| 14 | Cc1nc(-c2nc3cnc(N4CCN(C)CC4)cc3n2Cc2ccccc2)cn2c(C)nnc12 [III-9] |
| 18 | CNc1nc(-c2nc3cccnc3n2Cc2ccccc2)cn2c(C)nnc12 [III-10] |
| 9 | CNc1nc(-c2nc3cnc(N4CCN(C)CC4)nc3n2Cc2ccccc2)cn2c(C)nnc12 [III-11] |
| 7 | COCCN1CCC(Nc2nc(-c3nc4ccc(N5CCOCC5)cc4n3Cc3ccccc3)cn3c(C)nnc23)CC1 [III-12] |
| 9 | CNc1nc(-c2nc3ccc(N4CCN(C)CC4)cc3n2Cc2ccccc2)cn2c(C)nnc12 [III-13] |

| IC50 [nM] | SMILES |
| --- | --- |
| 10 | CNc1nc(-c2nc3ccc(N4CCOCC4)cc3n2Cc2ccccc2)cn2c(C)nnc12 [III-14] |
| 3 | COCCN1CCC(Nc2nc(-c3nc4cc(C5=NNC(=O)CC5C)ccc4n3Cc3ccccc3)cn3c(C)nnc23)CC1 (stereo not drawn) [III-15] |
| 5 | CNc1nc(-c2nc3cc(C4=NNC(=O)CC4C)ccc3n2Cc2ccccc2)cn2c(C)nnc12 (stereo not drawn) [III-16] |
| 17 | CCNc1nc(-c2nc3cnc(N4CCN(C)CC4)cc3n2Cc2ccccc2)cn2c(C)nnc12 [III-17] |
| 26 | Cc1nnc2c(NC(C)C)nc(-c3nc4cnc(N5CCN(C)CC5)cc4n3Cc3ccccc3)cn12 [III-18] |
| 38 | Cc1nnc2c(NC(C)C)nc(-c3nc4cnc(N5CCOC[C@@H]5C)cc4n3[C@@H](C)c3ccccc3)cn12 [III-19] |
| 13 | CNc1nc(-c2nc3cnc(N4CCN(C)CC4)cc3n2Cc2ccccn2)cn2c(C)nnc12 [III-20] |
| 8 | CNc1nc(-c2nc3ccc(N4CCN(C)CC4)cc3n2Cc2ccccn2)cn2c(C)nnc12 [III-21] |
| 3 | CNc1nc(-c2nc3cnc(N4CCOCC4)cc3n2Cc2ccccn2)cn2c(C)nnc12 [III-22] |
| 3 | CNc1nc(-c2nc3ccc(N4CCOCC4)cc3n2Cc2ccccn2)cn2c(C)nnc12 [III-23] |
| 20 | Cc1nnc2c(N[C@@H]3CCOC3)nc(-c3nc4cnc(N5CCOCC5)cc4n3Cc3ccccn3)cn12 [III-24] |
| 11 | CNc1nc(-c2nc3cc(C4CCOCC4)ccc3n2Cc2ccccn2)cn2c(C)nnc12 [III-25] |
| 5 | Cc1nnc2c(NC(C)C)nc(-c3nc4ccc(N5CCOCC5)cc4n3Cc3ccccn3)cn12 [III-26] |
| 10 | Cc1nnc2c(NC(C)C)nc(-c3nc4cnc(N5CCOCC5)cc4n3Cc3ccccn3)cn12 [III-27] |
| 1 | Cc1nnc2c(NC(C)C)nc(-c3nc4cnc(N5CCOCC5)cc4n3Cc3ccc(F)cn3)cn12 [III-28] |
| 9 | Cc1nnc2c(NC(C)C)nc(-c3nc4cnc(N5CCOC[C@H]5C)cc4n3Cc3ccccn3)cn12 [III-29] |
| 9 | Cc1nnc2c(NC(C)C)nc(-c3nc4cnc(N5CCOC[C@@H]5C)cc4n3Cc3ccccn3)cn12 [III-30] |
| 13 | Cc1nnc2c(NC(C)C)nc(-c3nc4cnc(N(C)C)cc4n3Cc3ccccn3)cn12 [III-31] |
| 7 | Cc1nnc2c(NC(C)C)nc(-c3nc4ccc(N(C)C)cc4n3Cc3ccccn3)cn12 [III-32] |
| 20 | Cc1nnc2c(NC(C)C)nc(-c3nc4ccccc4n3Cc3ccccn3)cn12 [III-33] |

| IC50 [nM] | SMILES |
| --- | --- |
| 45 | COc1ccc2nc(-c3cn4c(C)nnc4c(NC(C)C)n3)n(Cc3ccccn3)c2c1 [III-34] |
| 15 | Cc1ccc2nc(-c3cn4c(C)nnc4c(NC(C)C)n3)n(Cc3ccccn3)c2c1 [III-35] |
| 28 | Cc1cc2c(cn1)nc(-c1cn3c(C)nnc3c(NC(C)C)n1)n2Cc1ccccn1 [III-36] |
| 14 | Cc1nnc2c(NC(C)C)nc(-c3nc4cnccc4n3Cc3ccccn3)cn12 [III-37] |
| 17 | Cc1cccc(Cn2c(-c3cn4c(C)nnc4c(NC(C)C)n3)nc3cnc(N4CCOCC4)cc32)n1 [III-38] |
| 126 | COc1cc2c(cn1)nc(-c1cn3c(C)nnc3c(NC(C)C)n1)n2Cc1ccccn1 [III-39] |
| 18 | Cc1nnc2c(NC(C)C)nc(-c3nc4cnc(C(C)C)cc4n3Cc3ccccn3)cn12 [III-40] |
| 74 | Cc1nnc2c(NC(C)C)nc(-c3nc4cnc(N5CCOC[C@@H]5C)cc4n3[C@@H](C)c3ccccn3)cn12 [III-41] |
| 34 | Cc1nnc2c(NC(C)C)nc(-c3nc4cnc(C5CCOCC5)cc4n3Cc3ccccn3)cn12 [III-43] |
| 32 | Cc1nnc2c(NC(C)C)nc(-c3nc4ccc(C5CCOCC5)cc4n3Cc3ccccn3)cn12 [III-44] |
| 69 | Cc1nnc2c(NC(C)C)nc(-c3nc4ccc(C5CCOCC5)cc4n3[C@@H](C)c3ccccn3)cn12 [III-45] |
| 243 | Cc1nnc2c(NC(C)C)nc(-c3nc4ccc(C(C)C)cc4n3[C@@H](C)c3ccccn3)cn12 [III-46] |
| 8 | CNc1nc(-c2nc3ccc(N4CCN(C)CC4)cc3n2Cc2cccnc2)cn2c(C)nnc12 [III-48] |
| 4 | CNc1nc(-c2nc3cnc(N4CCOCC4)cc3n2Cc2cccnc2)cn2c(C)nnc12 [III-49] |
| 5 | CNc1nc(-c2nc3ccc(N4CCOCC4)cc3n2Cc2cccnc2)cn2c(C)nnc12 [III-50] |
| 13 | Cc1nnc2c(N[C@@H]3CCOC3)nc(-c3nc4cnc(N5CCOCC5)cc4n3Cc3cccnc3)cn12 [III-51] |
| 31 | Cc1cc2c(cn1)nc(-c1cn3c(C)nnc3c(N[C@@H]3CCOC3)n1)n2Cc1cccnc1 [III-52] |
| 12 | CNc1nc(-c2nc3cnc(N4CCN(C)CC4)cc3n2Cc2ccncc2)cn2c(C)nnc12 [III-53] |

| SMILES | IC50 [nM] |
| --- | --- |
| Cc1nnc2c(NC(C)C)nc(-c3nc4cnc(C(C)C)cc4n3[C@@H](C)c3ccccn3)cn12 [III-42] | 66 |
| CNc1nc(-c2nc3cnc(N4CCN(C)CC4)cc3n2Cc2cccnc2)cn2c(C)nnc12 [III-47] | 12 |
